# How the values were obtained:
# [1] = Evaluation of conversion rate to active form in buffer solution (Experimental Example 1); assay type: physicochemical; conditions: for Production rate of Alvocidib / Residual rate: 37° C., 25 umol/L in buffer solution
# Summary of the method: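 Conversion to Alvocidib was followed by HPLC over 3 hours at 37° C, with test compounds at 25 umol/L in 50 mM citrate or phosphate buffers spanning pH 5.0–7.4.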
# [2] = Evaluation of conversion rate to active form in human plasma (Experimental Example 3); assay type: in vitro ADME; conditions: 0.2 μmol/L, 37° C.; for Residual rate (%) of test compound: Human plasma
# Summary of the method: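 Test compound at 0.2 μmol/L was incubated at 37° C in human or BALB/c mouse plasma and sampled at 0, 30 and 60 min or at 0, 60 and 120 min. Compound and Alvocidib were quantified by LC-MS/MS peak area. Attrition is relative to 0 min; conversion is relative to 0.2 μmol/L Alvocidib reference.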
compound,measurement,setting,value
"CN1CC[C@H](c2c(OC(=O)N(C)C[C@@H]3CCCCN3)cc(O)c3c(=O)cc(-c4ccccc4Cl)oc23)[C@H](O)C1 [Example 3, 2-(2-chlorophenyl)-5-hydroxy-8-[(3S,4R)-3-hydroxy-1-methylpiperidin-4-yl]-4-oxo-4H-1-benzopyran-7-yl methyl{[(2S)-piperidin-2-yl]methyl}carbamate]",Production rate of Alvocidib,"[1]; pH5.0, 0 hr",0.2%
same,Residual rate,"[1]; pH5.0, 0 hr",99.8%
same,Stability in buffer solution at pH 5,"[1]; pH 5, 37° C., up to 2 or 3 hours",stable
same,Production rate of Alvocidib,"[1]; pH5.0, 0.5 hr",0.9%
same,Residual rate,"[1]; pH5.0, 0.5 hr",99.1%
same,Production rate of Alvocidib,"[1]; pH5.0, 1 hr",1.3%
same,Residual rate,"[1]; pH5.0, 1 hr",98.7%
same,Production rate of Alvocidib,"[1]; pH5.0, 2 hr",2.2%
same,Residual rate,"[1]; pH5.0, 2 hr",97.8%
same,Production rate of Alvocidib,"[1]; pH5.0, 3 hr",3.1%
same,Residual rate,"[1]; pH5.0, 3 hr",96.9%
same,Production rate of Alvocidib,"[1]; pH5.5, 0 hr",0.3%
same,Residual rate,"[1]; pH5.5, 0 hr",99.7%
same,Production rate of Alvocidib,"[1]; pH5.5, 0.5 hr",1.8%
same,Residual rate,"[1]; pH5.5, 0.5 hr",98.2%
same,Production rate of Alvocidib,"[1]; pH5.5, 1 hr",2.7%
same,Residual rate,"[1]; pH5.5, 1 hr",97.3%
same,Production rate of Alvocidib,"[1]; pH5.5, 2 hr",4.7%
same,Residual rate,"[1]; pH5.5, 2 hr",95.3%
same,Production rate of Alvocidib,"[1]; pH5.5, 3 hr",6.5%
same,Residual rate,"[1]; pH5.5, 3 hr",93.5%
same,Production rate of Alvocidib,"[1]; pH6.0, 0 hr",0.3%
same,Residual rate,"[1]; pH6.0, 0 hr",99.7%
same,Production rate of Alvocidib,"[1]; pH6.0, 0.5 hr",4.5%
same,Residual rate,"[1]; pH6.0, 0.5 hr",95.5%
same,Production rate of Alvocidib,"[1]; pH6.0, 1 hr",7.6%
same,Residual rate,"[1]; pH6.0, 1 hr",92.2%
same,Production rate of Alvocidib,"[1]; pH6.0, 2 hr",14.1%
same,Residual rate,"[1]; pH6.0, 2 hr",85.3%
same,Production rate of Alvocidib,"[1]; pH6.0, 3 hr",19.8%
same,Residual rate,"[1]; pH6.0, 3 hr",79.4%
same,Production rate of Alvocidib,"[1]; pH6.5, 0 hr",0.3%
same,Residual rate,"[1]; pH6.5, 0 hr",99.7%
same,Production rate of Alvocidib,"[1]; pH6.5, 0.5 hr",10.6%
same,Residual rate,"[1]; pH6.5, 0.5 hr",88.9%
same,Production rate of Alvocidib,"[1]; pH6.5, 1 hr",18.3%
same,Residual rate,"[1]; pH6.5, 1 hr",80.9%
same,Production rate of Alvocidib,"[1]; pH6.5, 2 hr",33.5%
same,Residual rate,"[1]; pH6.5, 2 hr",65.3%
same,Production rate of Alvocidib,"[1]; pH6.5, 3 hr",44.6%
same,Residual rate,"[1]; pH6.5, 3 hr",53.9%
same,Production rate of Alvocidib,"[1]; pH7.0, 0 hr",0.6%
same,Residual rate,"[1]; pH7.0, 0 hr",99.4%
same,Production rate of Alvocidib,"[1]; pH7.0, 0.5 hr",26.8%
same,Residual rate,"[1]; pH7.0, 0.5 hr",72.2%
same,Production rate of Alvocidib,"[1]; pH7.0, 1 hr",43.2%
same,Residual rate,"[1]; pH7.0, 1 hr",55.3%
same,Production rate of Alvocidib,"[1]; pH7.0, 2 hr",65.2%
same,Residual rate,"[1]; pH7.0, 2 hr",20.2%
same,Production rate of Alvocidib,"[1]; pH7.0, 3 hr",74.5%
same,Residual rate,"[1]; pH7.0, 3 hr",8.0%
same,Production rate of Alvocidib,"[1]; pH7.4, 0 hr",0.9%
same,Residual rate,"[1]; pH7.4, 0 hr",99.1%
same,Conversion to Alvocidib at pH 7.4,"[1]; pH 7.4, 37° C., up to 3 hours",rapidly converted to Alvocidib
same,Production rate of Alvocidib,"[1]; pH7.4, 0.5 hr",49.0%
same,Residual rate,"[1]; pH7.4, 0.5 hr",49.4%
same,Production rate of Alvocidib,"[1]; pH7.4, 1 hr",67.8%
same,Residual rate,"[1]; pH7.4, 1 hr",17.0%
same,Production rate of Alvocidib,"[1]; pH7.4, 2 hr",80.4%
same,Residual rate,"[1]; pH7.4, 2 hr",0.0%
same,Production rate of Alvocidib,"[1]; pH7.4, 3 hr",82.5%
same,Residual rate,"[1]; pH7.4, 3 hr",0.0%
same,Residual rate (%) of test compound,[2]; 0 min,100%
same,Residual rate (%) of test compound,[2]; 30 min,3%
same,Residual rate (%) of test compound,[2]; 60 min,0%
same,Conversion to Alvocidib in human plasma,"[2]; human plasma, Examples up to 60 minutes, Comparative Examples up to 120 minutes",proceeded rapidly
